For the test, the target named is TSPO (translocator protein (18 kDa)) (Oryctolagus cuniculus, UniProt G1SMF7). As to the kind of experiment: [3H]-PK11195 radioligand displacement, size exclusion desalting plates. The note with it: 1.2 nM [3H]-PK11195, 50 mM Tris-HCl pH 7.4, 30 min, room temperature; isolated mitochondria. Type of test: binding. (In a radioligand displacement assay an active substance lowers the binding of a labelled ligand.)

The text below walks through data of article PMC8022998 (Biomacromolecules, 2020).

A word on the IC50: it is the point on the concentration scale where inhibition reaches its midpoint.

TSPO (translocator protein (18 kDa)), sequence (G1SMF7 229-397): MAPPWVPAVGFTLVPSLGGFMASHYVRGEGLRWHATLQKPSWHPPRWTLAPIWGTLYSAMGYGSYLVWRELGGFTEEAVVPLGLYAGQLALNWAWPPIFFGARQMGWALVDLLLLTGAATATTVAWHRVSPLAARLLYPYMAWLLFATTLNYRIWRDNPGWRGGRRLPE

Consider `CCN(CC)C(=O)Cc1c(-c2ccc(OCCn3cc(CO)nn3)cc2)nn2c(C)cc(C)nc12` [DPA-triazole], for which the IC50 is 100 ± 20 nM.
In the case of `CCC(C)N(C)C(=O)c1cc2ccccc2c(-c2ccccc2Cl)n1` (centres unmarked) [PK11195], the IC50 was 5 ± 0.5 nM.
